Data published in US6576437B2, “Stimulus-inducible protein kinase complex and methods of use therefor” (Signal Pharmaceuticals, Inc., priority 1996, dated 2003).
“Also recorded” adds a separate entry of the source. Square brackets hold non-standard residues; d marks the D form. Ends that are not written are not given here. Peptide text beside a SMILES is read from it. pS = N[C@@H](COP(=O)(O)O)C(=O)O

Columns and labels:
IKK signalsome [1] = target: T1, IKK signalsome (Homo sapiens, UniProt O14920+O15111); experiment: Inhibition of immunopurified IKK signalsome activity (32P incorporation into GST-IκBα(1-54)); assay type: biochemical; settings: GST-IκBα(1-54) 0.56 μM, ATP 3 μM; for inhibition of IKK signalsome kinase (phosphorylation of GST-IκBα (1-54)): one hour at room temperature
T1 construct: endogenous in cells; host or cells: HeLa / HeLa S3 cells stimulated with TNFα; anti-MKP-1 immunoprecipitate
T1 sequence (O15111 whole entry): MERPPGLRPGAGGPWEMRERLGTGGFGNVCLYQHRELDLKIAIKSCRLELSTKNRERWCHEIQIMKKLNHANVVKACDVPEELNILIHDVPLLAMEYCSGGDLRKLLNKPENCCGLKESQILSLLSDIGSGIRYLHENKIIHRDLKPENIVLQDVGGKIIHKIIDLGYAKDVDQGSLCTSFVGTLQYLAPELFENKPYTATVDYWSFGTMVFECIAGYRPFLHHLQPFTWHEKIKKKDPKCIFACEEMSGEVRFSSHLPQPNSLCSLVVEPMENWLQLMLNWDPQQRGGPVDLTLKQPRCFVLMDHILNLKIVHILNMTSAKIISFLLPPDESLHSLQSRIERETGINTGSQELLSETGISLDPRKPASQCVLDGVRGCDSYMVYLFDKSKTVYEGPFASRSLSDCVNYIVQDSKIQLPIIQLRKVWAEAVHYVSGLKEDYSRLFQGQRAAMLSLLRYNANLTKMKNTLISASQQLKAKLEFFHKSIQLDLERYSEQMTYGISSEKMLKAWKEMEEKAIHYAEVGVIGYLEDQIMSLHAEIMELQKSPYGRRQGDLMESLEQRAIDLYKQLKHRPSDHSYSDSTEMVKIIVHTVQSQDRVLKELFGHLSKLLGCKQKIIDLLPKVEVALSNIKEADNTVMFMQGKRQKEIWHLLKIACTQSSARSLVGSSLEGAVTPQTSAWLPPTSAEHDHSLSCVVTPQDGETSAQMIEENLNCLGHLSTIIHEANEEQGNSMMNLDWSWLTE
T1 sequence (O14920 whole entry): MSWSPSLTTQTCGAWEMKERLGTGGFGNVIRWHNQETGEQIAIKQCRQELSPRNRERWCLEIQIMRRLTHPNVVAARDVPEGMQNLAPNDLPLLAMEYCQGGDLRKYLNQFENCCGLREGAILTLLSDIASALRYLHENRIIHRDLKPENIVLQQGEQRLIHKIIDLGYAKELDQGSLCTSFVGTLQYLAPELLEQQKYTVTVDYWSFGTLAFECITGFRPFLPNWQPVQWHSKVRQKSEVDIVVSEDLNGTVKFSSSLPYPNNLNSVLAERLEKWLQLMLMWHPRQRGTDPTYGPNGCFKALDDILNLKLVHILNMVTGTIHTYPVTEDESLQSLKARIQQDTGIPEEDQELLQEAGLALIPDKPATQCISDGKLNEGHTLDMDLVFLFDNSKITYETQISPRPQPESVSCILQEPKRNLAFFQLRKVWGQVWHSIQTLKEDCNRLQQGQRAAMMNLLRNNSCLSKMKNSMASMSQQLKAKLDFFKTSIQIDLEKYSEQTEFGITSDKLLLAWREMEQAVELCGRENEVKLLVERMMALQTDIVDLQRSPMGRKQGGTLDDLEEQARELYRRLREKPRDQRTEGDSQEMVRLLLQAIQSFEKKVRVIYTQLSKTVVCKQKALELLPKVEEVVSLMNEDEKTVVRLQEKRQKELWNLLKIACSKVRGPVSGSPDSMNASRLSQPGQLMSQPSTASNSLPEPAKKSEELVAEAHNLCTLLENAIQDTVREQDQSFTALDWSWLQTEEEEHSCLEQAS
T1 sequence (Q9Y6K9 whole entry partner): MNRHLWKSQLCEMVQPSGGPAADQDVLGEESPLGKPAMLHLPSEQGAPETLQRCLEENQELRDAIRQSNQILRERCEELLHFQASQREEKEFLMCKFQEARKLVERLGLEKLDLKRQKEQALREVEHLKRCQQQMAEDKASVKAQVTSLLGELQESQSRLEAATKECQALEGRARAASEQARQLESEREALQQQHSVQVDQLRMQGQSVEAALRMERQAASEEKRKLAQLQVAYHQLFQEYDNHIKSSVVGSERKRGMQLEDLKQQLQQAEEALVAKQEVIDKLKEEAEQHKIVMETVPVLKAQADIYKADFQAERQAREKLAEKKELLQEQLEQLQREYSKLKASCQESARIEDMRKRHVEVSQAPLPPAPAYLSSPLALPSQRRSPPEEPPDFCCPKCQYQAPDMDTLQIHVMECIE
Protocol: FIG. 9B is a graph illustrating the inhibition of phosphorylation of GST-IκBα (1-54) by IκBα(21-41) peptides. […] This assay only detects precipitated ^32P-labeled proteins, not ^32P-labeled peptides. Addition of the singly- or non-phosphorylated IκBα(21-41) peptides results in less phosphorylation of GST-IκBα (1-54) and apparent inhibition.
Inhibition of immunopurified IKK signalsome activity was measured by ^32P incorporation into GST-IκBα(1-54) in a discontinuous assay using the reaction conditions described above. The concentrations of GST-IκBα(1-54) and ATP used in the inhibition studies were 0.56 μM and 3 μM, respectively. Enzymatic reactions (32 μL) were carried out in wells of a 96 well assay plate for one hour at room temperature and terminated with the addition of trichloroacetic acid (TCA) (150 μL/well of 12.5% w/v). The subsequent 20 minute incubation with TCA precipitated the proteins but not peptides from solution. The TCA precipitate was collected on 96-well glass fiber plates (Packard) and washed 10 times with approximately 0.3 mL per well of Dulbecco's phosphate buffered saline pH 7.4 (Sigma) using a Packard Filtermate 196. Scintillation fluid (0.50 mL, MicroScint, Packard) was added to each well and the plate was analyzed for ^32P using a Packard TopCount scintillation counter. Less than 10% of ATP was turned over in the course of the assay reaction, ensuring that the kinetic data represented initial rate data. The inhibition constant of the P32, 36 peptide was determined by Dixon analysis (Dixon and Webb, In Enzymes (Academic Press: New York, ed. 3, 1979), pp. 350-51.

IKK signalsome [2] = target: T1, IKK signalsome; experiment: IKK signalsome activity in anti-MKP-1 immunoprecipitates from TNFα-stimulated HeLa S3 cells pretreated with inhibitor; assay type: cell-based; settings: HeLa S3 cells pretreated 30 min with 15 μM prior to TNFα (20 ng/ml, 7 min)
Protocol: FIG. 8B illustrates the stimulus-dependent activation of IKK signalsome, which is blocked by TPCK. Anti-MKP-1 immunoprecipitates from cell extracts of HeLa S3 cells either stimulated for 7 min with TNFα (20 ng/ml, lane 2 and 6), IL-1 (10 ng/ml, lane 3), PMA (50 ng/ml, lane 4) or pretreated for 30 min with TPCK (15 μM, lane 7) prior to TNFα-induction were examined for IKK signalsome activity. GST IκBα 1-54 WT (4 μg) was used as a substrate.
For these studies, small scale immunoprecipitation were performed using two 150 mm plates of HeLa cells (one stimulated and one unstimulated). Whole cell lysates were diluted 4-fold with 2×Pull-Down Buffer (40 mM Tris pH 8.0, 500 mM NaCl, 0.1% NP-40, 6 mM EDTA, 6 mM EGTA, 10 mM β-glycerophosphate, 10 mM NaF, 10 mM PNPP, 300 μM Na3VO4, 1 mM benzamidine, 2 μM PMSF, 10 μg/ml aprotonin, 1 μg/ml leupeptin, 1 μg/ml pepstatin, 1 mM DTT) and 2-4 μg of the indicated antibody was added. Lysates were incubated on ice for 1-2 hours, 10 μl of Protein A or G beads were added, and lysates were left to incubate with gentle rotation for an additional 1 hour at 4° C. The immunoprecipitate was then washed 3 times with 2×Pull-Down Buffer, 1× with kinase buffer without ATP and subjected to a kinase assay as described in Example 2. […]

IKK signalsome [3] = target: T1, IKK signalsome; experiment: Phosphorylation of synthetic peptides by the IKK signalsome (immunokinase assay); assay type: biochemical; settings: peptide 100 μM; for phosphorylation of peptide by IKK signalsome: γ-[32P]-ATP, one hour at room temperature
Protocol: FIG. 9A is an autoradiogram depicting the results of an immunokinase assay in which peptides are phosphorylated by the IKK signalsome. In the top panel, IκBα(21-41) peptides that were unphosphorylated or chemically phosphorylated on either Ser-32 or Ser-36 were incubated with the IKK signalsome in the presence of γ-[^32P]-ATP.
Phosphorylation of these peptides (100 μM) was performed using a kinase reaction as described above. Reactions were for one hour at room temperature and were terminated by the addition of SDS-PAGE loading buffer. SDS-PAGE with a 16% Tris/tricine gel (Novex, San Diego, Calif.) or a 4-20% Tris/glycine gel (Novex, San Diego, Calif.) was used to characterize the reaction products. Gels were washed, dried in vacuo, and exposed to autoradiographic film.

[4] = tested on: RelA translocation in HeLa cells; experiment: RelA nuclear translocation in transiently transfected HeLa cells (immunofluorescence); assay type: cell-based, human
Protocol: HeLa cells were transiently transfected with either HA-tagged IKK-1 K44 to M mutant (14B) or Flag-tagged IKK-2 K44 to M mutant (14C) expression vectors. 36 hours post-transfection cells were either not stimulated (Unstim) or TNFα-stimulated (20 ng/ml) for 30 min (TNFα), as indicated to the right of the figure. Cells were then subjected to immunofluorescence staining using anti-HA of anti-Flag antibodies to visualize expression of IKK-1 K44 to M or IKK-2 K44 to M, respectively. Stimulus-dependent translocation of Rel A was monitored using anti-Rel A antibodies. Antibodies used are indicated to the top of the figure. IKK mutant transfected is indicated to the left of the figure.
For these studies, HeLa cells were transiently transfected with either HA-tagged IKK-1 or Flag-tagged IKK-2. Cells were fixed for 30 minutes with methanol. For immunofluorescence staining, the cells were incubated sequentially with primary antibody in PBS containing 10% donkey serum and 0.25% Triton X-100 for 2 hours followed by fluorescein-conjugated or Texas red-conjugated secondary antibody (Jackson Immunoresearch Laboratories, Inc., West Grove, Pa.; used at 1:500 dilution) for 1 hour at room temperature. The coverslips were rinsed and coverslipped with Vectashield (Vector Laboratories, Burlingame, Calif.) before scoring and photographing representative fields. […]

Molecule: CSCC[C@H](NC(=O)[C@H](COP(=O)(O)O)NC(=O)[C@H](CC(=O)O)NC(=O)[C@H](CC(C)C)NC(=O)CNC(=O)[C@H](COP(=O)(O)O)NC(=O)[C@H](CC(=O)O)NC(=O)[C@H](Cc1c[nH]cn1)NC(=O)[C@H](CCCNC(=N)N)NC(=O)[C@H](CC(=O)O)NC(=O)[C@H](CC(=O)O)NC(=O)[C@H](CC(C)C)NC(=O)[C@H](CC(C)C)NC(=O)[C@H](CCCNC(=N)N)NC(=O)[C@H](CCC(=O)O)NC(=O)[C@H](CCCCN)NC(=O)[C@H](CCCCN)NC(=O)[C@@H](N)CS)C(=O)N[C@@H](CCCCN)C(=O)N[C@@H](CC(=O)O)C(=O)N[C@@H](CCC(=O)O)C(=O)N[C@@H](CCC(=O)O)C(=O)O [IκBα(21-41) peptide P32,36] (H-CKKERLLDDRHD[pS]GLD[pS]MKDEE-OH)
- Ki (IKK signalsome [1]; Dixon analysis, read-out: Ki (product inhibition of GST-IκBα (1-54) phosphorylation)): 14 µM

Molecule: Cc1ccc(S(=O)(=O)N[C@@H](Cc2ccccc2)C(=O)CCl)cc1 [TPCK]
- IKK signalsome activity in treated cells (IKK signalsome [2]): inhibited; also recorded: blocked

Molecule: CKKERLLDDRHDSGLDSMKDEE [IκBα (21-41) peptide]
- phosphorylation of peptide by IKK signalsome (IKK signalsome [3]): capable of phosphorylating
- inhibition of IKK signalsome kinase (phosphorylation of GST-IκBα (1-54)) (IKK signalsome [1]): less effective inhibitors

Molecule: CKKERLLDDRHDTGLDTMKDEE
- phosphorylation by the signalsome, fold less well than the wild-type serine-containing peptide (IKK signalsome [3]): at least 10 fold

Molecule: CPTNSALNYLKSPITTSPS [MKP-1 peptide]
- phosphorylation of peptide by IKK signalsome (IKK signalsome [3]): did not phosphorylate

Molecule: DLTGGPEVAT(PO3)PESEEAFLP [c-Fos(222-241)]
- phosphorylation of peptide by IKK signalsome (IKK signalsome [3]): did not function as a signalsome substrate
- phosphorylation of peptide by IKK signalsome (IKK signalsome [3]; listed as c-Fos phosphopeptide): did not phosphorylate
- inhibition of IKK signalsome kinase (phosphorylation of GST-IκBα (1-54)) (IKK signalsome [1]): does not function as an inhibitor
- inhibition of IKK signalsome kinase (phosphorylation of GST-IκBα (1-54)) (IKK signalsome [1]; listed as c-Fos phosphopeptide): not
- inhibition of IKK signalsome kinase (phosphorylation of GST-IκBα (1-54)) (IKK signalsome [1]; listed as c-fos phosphopeptide): not

Molecule: singly-phosphorylated IκBα peptides: two IκBα (21-41) peptides, free serine at position 32 or 36 and phosphoserine at the other position (KKERLLDDRHDSGLDSMKDEE; not fully specified (N-terminus); also: pS at S32 or S36, free Ser at the other (two peptides); UniProt P25963 21-41, looked up, fragment)
- inhibition of IKK signalsome kinase (phosphorylation of GST-IκBα (1-54)) (IKK signalsome [1]): less effective inhibitors

B1: IKK-2 mutant: Flag-tagged kinase-inactive version (K44 to M) of IKK-2 (protein, UniProt O14920 1-756, looked up, variant K44M)
Inhibitor of nuclear factor …: MSWSPSLTTQTCGAWEMKERLGTGGFGNVIRWHNQETGEQIAIMQCRQELSPRNRERWCLEIQIMRRLTHPNVVAARDVPEGMQNLAPNDLPLLAMEYCQGGDLRKYLNQFENCCGLREGAILTLLSDIASALRYLHENRIIHRDLKPENIVLQQGEQRLIHKIIDLGYAKELDQGSLCTSFVGTLQYLAPELLEQQKYTVTVDYWSFGTLAFECITGFRPFLPNWQPVQWHSKVRQKSEVDIVVSEDLNGTVKFSSSLPYPNNLNSVLAERLEKWLQLMLMWHPRQRGTDPTYGPNGCFKALDDILNLKLVHILNMVTGTIHTYPVTEDESLQSLKARIQQDTGIPEEDQELLQEAGLALIPDKPATQCISDGKLNEGHTLDMDLVFLFDNSKITYETQISPRPQPESVSCILQEPKRNLAFFQLRKVWGQVWHSIQTLKEDCNRLQQGQRAAMMNLLRNNSCLSKMKNSMASMSQQLKAKLDFFKTSIQIDLEKYSEQTEFGITSDKLLLAWREMEQAVELCGRENEVKLLVERMMALQTDIVDLQRSPMGRKQGGTLDDLEEQARELYRRLREKPRDQRTEGDSQEMVRLLLQAIQSFEKKVRVIYTQLSKTVVCKQKALELLPKVEEVVSLMNEDEKTVVRLQEKRQKELWNLLKIACSKVRGPVSGSPDSMNASRLSQPGQLMSQPSTASNSLPEPAKKSEELVAEAHNLCTLLENAIQDTVREQDQSFTALDWSWLQTEEEEHSCLEQAS
modifications: Flag tag
- inhibition of RelA nuclear translocation ([4]; TNFα-stimulated (20 ng/ml, 30 min) HeLa cells, 36 hours post-transfection): striking and complete
- effect on subcellular localization of RelA ([4]; unstimulated HeLa cells): no effect
